Measured values published in patent publication US20230346831A1, “METHODS FOR TREATING […] USING LOW DOSE CARBON MONOXIDE” (priority 2020, published 2023).

Tests used:
Type in all cases: cell-based, human
MCF7 cells [1] = assay: in vitro transwell migration assay; conditions: 16 hours
Excerpt: (§1) MDA-MB-231/TGL cell lines was obtained from Dr. Joan Massagué (Minn, et al, J. Clin. Invest., 115:(1), 44-55 (2005)). CM cell line was obtained from Dr. Paolo Pozzilli (S. Kobayashi et al., Oncogenesis 8, 16 (2019)). MCF7 breast cancer cells and 8988T pancreatic cancer cells were infected with viruses carrying thymidine kinase/green fluorescent protein/luciferase fusion reporter (TGL), which was obtained from Drs. Inna Serganova and Ronald Blasberg (V. Ponomarev et al., European journal of nuclear medicine and molecular imaging 31, 740-751 (2004)). GFP-positive MCF7/TGL and […] cells were enriched by fluorescence-activated cell sorting. H1975, lung adenocarcinoma cell line, was obtained from ATCC (Manassas, VA). MCF7/TGL/pQ and MCF7/TGL/HA-Bcl-xL cell lines were generated by infecting MCF7/TGL cells with viruses carrying pQXCIP or pQXCIP-HA-Bcl-xL, and selected in the medium containing 0.5-1 µg/ml puromycin. Human CYP1B1cDNA (GeneScript) was transiently transfected into MCF7/TGL, MDA-MB-231/TGL, and 8988T/TGL with Lipofectamine 3000 according to the manufacture’s protocol (Invitrogen, Carlsbad, CA). Cells were treated with CO at 250 ppm for 16 hours. Control air condition was a regular cell culture incubator with 5% CO2. Cells were also treated with 30 µM Hemin (HY-19424, MedChemExpress, Monmouth Junction, NJ) in standard tissue culture incubator or 250 ppm CO.
(§2) 6.5 mm Transwell with 8.0 µm Pore Polycarbonate Membrane Insert (Corning, NY, Cat. No. 3422) was used for the cell migration assay (FIG. 1J). After 16 hours of incubation, cells migrated to the opposite side of the upper chambers were fixed with 4% paraformaldehyde, stained with 0.2% crystal violet for 30 min and counted in five fields under × 20 magnification. In parallel, cells were seeded on 24-well plates for proliferation assay. Cells for proliferation control were fixed with 4% paraformaldehyde, stained with 0.2% crystal violet for 30 min and lysed with methanol to release the crystal violet as described by M. Feoktistova, P. Geserick, & M. Leverkus, Cold Spring Harb Protoc 2016, pdb prot087379 (2016). The optical density was measured at 595 nm (OD595). To supplement heme/hemin in the transwell migration assay, 30 µM hemin (MedChemExpress, Monmouth Junction, NJ, Cat. No. HY-19424) was added to both the cell suspension in the upper chambers and the bottom wells.
(§3) To examine whether CO has an effect on tumor cell migration, in vitro transwell migration assays were performed. Various human cancer cell lines, including 3 types of breast cancer (ER^+: MCF7 cells, HER2^+: HCC1954 cells, triple-negative breast cancer (TNBC): MDA-MB-231 cells), pancreatic ductal adenocarcinoma (PDAC) (8988T cells), pancreatic neuroendocrine tumor (PNET) (CM cells), colon cancer (SW480 cells), prostate cancer (22Rv1 cells), liver cancer (HepG2 cells), and lung cancer (H1975 cells) were seeded in the upper chamber of 8-µm porous polycarbonate membranes. Cell migration through the transwell membrane along a serum gradient (Table 1) after 16 hours in the presence or absence of 250 ppm CO were measured.

CM cells [2] = assay: in vitro transwell migration assay; conditions: 16 hours
Excerpt: as §1, §2, §3

8988T cells [3] = assay: in vitro transwell migration assay; conditions: 16 hours
Excerpt: as §1, §2, §3

HCC1954 cells [4] = assay: in vitro transwell migration assay; conditions: 16 hours
Excerpt: as §1, §2, §3

SW480 cells [5] = assay: in vitro transwell migration assay; conditions: 16 hours
Excerpt: as §1, §2, §3

H1975 cells [6] = assay: in vitro transwell migration assay; conditions: 16 hours
Excerpt: as §1, §2, §3

22Rv1 cells [7] = assay: in vitro transwell migration assay; conditions: 16 hours
Excerpt: as §1, §2, §3

HepG2 cells [8] = assay: in vitro transwell migration assay; conditions: 16 hours
Excerpt: as §1, §2, §3

[9] = test system: various cancer cell lines; assay: proliferation assay, statements across cancer types
Description: (§4) Proliferation of different cancer cells under control air or 250 ppm CO treatment with or without supplement of 30 µM hemin was determined. Indicated cell lines cell lines were seeded in the 24-well plate in normal growth media. 16 hours later, cells were fixed, stained with crystal violet, and lysed by methanol. OD595 were measured from triplicates of each cell type. Error bars represent SEM. *: P < 0.05, two-sided t-test. Scale bar, 100 µm.
6.5 mm Transwell with 8.0 µm Pore Polycarbonate Membrane Insert (Corning, NY, Cat. No. 3422) was used for the cell migration assay (FIG. 1J). After 16 hours of incubation, cells migrated to the opposite side of the upper chambers were fixed with 4% paraformaldehyde, stained with 0.2% crystal violet for 30 min and counted in five fields under × 20 magnification. In parallel, cells were seeded on 24-well plates for proliferation assay. […] The optical density was measured at 595 nm (OD595). […]
To investigate whether 250 ppm CO induces hypoxia, HiF1α protein levels in low-dose CO-treated MCF7/TGL and MDA-MB-231/TGL cells were examined. […] To assess the intracellular heme levels affected by low-dose CO treatment, oxidized heme levels in the form of hemin (Fe^3+ state) were measured because free heme (Fe^2+ state) is readily oxidized and cannot be measured. […]

MCF7 cells [10] = assay: proliferation assay (crystal violet, OD595); conditions: 16 hours
Description: as §4, §2, §3

CM cells [11] = assay: proliferation assay (crystal violet, OD595); conditions: 16 hours
Description: as §4, §2, §3

8988T cells [12] = assay: proliferation assay (crystal violet, OD595); conditions: 16 hours
Description: as §4, §2, §3

HCC1954 cells [13] = assay: proliferation assay (crystal violet, OD595); conditions: 16 hours
Description: as §4, §2, §3

SW480 cells [14] = assay: proliferation assay (crystal violet, OD595); conditions: 16 hours
Description: as §4, §2, §3

H1975 cells [15] = assay: proliferation assay (crystal violet, OD595); conditions: 16 hours
Description: as §4, §2, §3

22Rv1 cells [16] = assay: proliferation assay (crystal violet, OD595); conditions: 16 hours
Description: as §4, §2, §3

HepG2 cells [17] = assay: proliferation assay (crystal violet, OD595); conditions: 16 hours
Description: as §4, §2, §3

[18] = 30 µM hemin in upper and lower chambers + 250 ppm CO
[19] = 30 µM hemin, with or without 250 ppm CO
[20] = 250 ppm CO, serum gradient, vs control air

Compound: Hemin [reference compound]
- cell migration inhibited by 250 ppm CO (reversal by hemin) (MCF7 cells [1]; MCF7/TGL cells, 30 µM hemin in upper and lower chambers + 250 ppm CO): significantly reversed
- cell migration inhibited by 250 ppm CO (reversal by hemin) (CM cells [2]; [18]): significantly reversed
- cell migration inhibited by 250 ppm CO (reversal by hemin) (8988T cells [3]; [18]): significantly reversed
- cell migration inhibited by 250 ppm CO (reversal by hemin) (HCC1954 cells [4]; [18]): significantly reversed
- cell migration inhibited by 250 ppm CO (reversal by hemin) (SW480 cells [5]; [18]): significantly reversed
- cell migration inhibited by 250 ppm CO (reversal by hemin) (H1975 cells [6]; [18]): significantly reversed
- cell migration inhibited by 250 ppm CO (reversal by hemin) (22Rv1 cells [7]; [18]): significantly reversed
- cell migration inhibited by 250 ppm CO (reversal by hemin) (HepG2 cells [8]; [18]): significantly reversed
- cell proliferation of various cancer cell lines with hemin ([9]; 30 µM hemin in the medium (FIGS. 2C-2E)): slightly increased
- cancer cell proliferation with hemin supplement (MCF7 cells [10]; MCF7/TGL cells, 30 µM hemin, with or without 250 ppm CO): did not alter
- cancer cell proliferation with hemin supplement (CM cells [11]; [19]): did not alter
- cancer cell proliferation with hemin supplement (8988T cells [12]; [19]): did not alter
- cancer cell proliferation with hemin supplement (HCC1954 cells [13]; [19]): did not alter
- cancer cell proliferation with hemin supplement (SW480 cells [14]; [19]): did not alter
- cancer cell proliferation with hemin supplement (H1975 cells [15]; [19]): did not alter
- cancer cell proliferation with hemin supplement (22Rv1 cells [16]; [19]): did not alter
- cancer cell proliferation with hemin supplement (HepG2 cells [17]; [19]): did not alter

Compound: [C-]#[O+] [CO, Carbon monoxide]
- cell migration through the transwell membrane (MCF7 cells [1]; MCF7 cells, 250 ppm CO, serum gradient, vs control air): significantly reduced
- cell migration through the transwell membrane (CM cells [2]; [20]): significantly reduced
- cell migration through the transwell membrane (8988T cells [3]; [20]): significantly reduced
- cell migration through the transwell membrane (HCC1954 cells [4]; [20]): significantly reduced
- cell migration through the transwell membrane (SW480 cells [5]; [20]): significantly reduced
- cell migration through the transwell membrane (H1975 cells [6]; [20]): significantly reduced
- cell migration through the transwell membrane (22Rv1 cells [7]; [20]): significantly reduced
- cell migration through the transwell membrane (HepG2 cells [8]; [20]): significantly reduced
- cancer cell proliferation across different cancer types ([9]; 250 ppm CO for 16 hours, vs control air): does not affect
- cell proliferation (MCF7 cells [10]; MCF7 cells, 250 ppm CO, vs control air): did not affect
- cell proliferation (CM cells [11]; 250 ppm CO, vs control air): did not affect
- cell proliferation (8988T cells [12]; 250 ppm CO, vs control air): did not affect
- cell proliferation (HCC1954 cells [13]; 250 ppm CO, vs control air): did not affect
- cell proliferation (SW480 cells [14]; 250 ppm CO, vs control air): did not affect
- cell proliferation (H1975 cells [15]; 250 ppm CO, vs control air): did not affect
- cell proliferation (22Rv1 cells [16]; 250 ppm CO, vs control air): did not affect
- cell proliferation (HepG2 cells [17]; 250 ppm CO, vs control air): did not affect
